According to patent US8841339B2, “Synergistic antifouling compositions comprising 4-bromo-2-(4-chlorophenyl)-5-(trifluoromethyl)-1H-pyrrole-3-carbonitrile” (Janssen Pharmaceutica N.V., priority 2001, dated 2014):
Marks after values point to notes of the source that are not given here.

Experiments:
[1] = system: Chlorella vulgaris (CCAP 211/12); assay: Poison plate assay in 96 multi-well plates, algae growth; format: cell-based; details: single active ingredient, incubation time 18 days
Description: (§1) Activity against algae growth was determined with the poison plate assay. A calculated amount of a stock solution (containing either 4-bromo-2-(4-chlorophenyl)-5-(trifluoromethyl)-1H-pyrrole-3-carbonitrile, bethoxazin, DCOIT, dichlofluanide, or tolylfluanide in DMSO) was pipetted into multiwell plates in order to reach a final test concentration ranging from 0.05 to 100 ppm and mixed with a warm culture medium. The medium was inoculated with 300 μl of an algal suspension. The multi-well plates were kept at 21° C., a relative humidity of 65% and light-dark cycle of 16 hours a day (1000 Lux photoperiod).
(§2) The lowest concentration of each test compound or mixture of test compounds sufficient to inhibit visible growth was taken as the minimum inhibitory concentration (MIC). The MIC were taken as end points of activity. End points for the combinations of component (I) with one of the components (II) were then compared with the end points for the pure active test compound when employed individually.
(§3) Synergism between component (I) and one of the components (II) was determined by a commonly used and accepted method described by Kull F. C. et al. in Applied Microbiology, 9, 538-541 (1961) using the Synergy Index, which is calculated as follows for two compounds A and B:
(§4) [formula] wherein: • QA is the concentration of compound A in ppm, acting alone, which produced an end point (e.g. MIC), • Qa is the concentration of compound A in ppm, in the mixture, which produced an end point (e.g. MIC), • QB is the concentration of compound B in ppm, acting alone, which produced an end point (e.g. MIC), • Qb is the concentration of compound B in ppm, in the mixture, which produced an end point (e.g. MIC).
(§5) When the Synergy Index is greater than 1.0, antagonism is indicated. When the SI is equal to 1.0, additivity is indicated.

[2] = system: Stichococcus bacillaris (CCAP 379/1A); assay: as above; format: cell-based; details: single active ingredient, incubation time 18 days
Description: as §1, §2, §3, §4, §5

Row | SMILES | MIC-values (minimum inhibitory concentration) [1] | MIC-values (minimum inhibitory concentration) [2]
1 | Cc1ccc(N(SC(F)(Cl)Cl)S(=O)(=O)N(C)C)cc1 [component (II-b), 1,1-dichloro-N-[(dimethylamino)sulfonyl]-1-fluoro-N-(4-methylphenyl)-methanesulfenamide] | 25 ppm | 12.5 ppm
2 | CN(C)S(=O)(=O)N(SC(F)(Cl)Cl)c1ccccc1 [component (II-c), 1,1-dichloro-N-[(dimethylamino)sulfonyl]-1-fluoro-N-phenyl-methanesulfenamide] | 25 ppm | 25 ppm
3 | [O-][S+]1CCON=C1c1cc2ccccc2s1 (stereo not shown) [component (II-a), 3-(benzo[b]thien-2-yl)-5,6-dihydro-1,4,2-oxathiazine 4-oxide] | 1.6 ppm | 6.2 ppm
4 | CCCCCCCCn1sc(Cl)c(Cl)c1=O [component (II-d), 4,5-dichloro-2-(n-octyl)-3(2H)-isothiazolone] | 1.6 ppm | 1.6 ppm
5 | N#Cc1c(-c2ccc(Cl)cc2)[nH]c(C(F)(F)F)c1Br [component (I), 4-bromo-2-(4-chlorophenyl)-5-(trifluoromethyl)-1H-pyrrole-3-carbonitrile] | > 100* ppm | > 100* ppm
